Experimental data reported in patent US9107959B2, “Method for site-specific polyvalent display on polymers” (priority 2006, dated 2015).

Test: Cyclic voltammetry (electrochemical analyses)
Type: physicochemical
Conditions: 0.5 mM in water, NaCl 50 mM
Protocol: Ethynylferrocene (1.05 mg, 5.0 μmol) was dissolved in 10 mL HPLC grade water. NaCl (29.22 mg, 0.5 mmol) was added to the solution as a supporting electrolyte. Similarly, solutions of 10 mL water, 6.3 mg (5.0 μmol) peptoid 13 or 4.8 mg (5.0 μmol) peptoid 14 and 29.22 mg (0.5 mmol) NaCl were prepared. The following techniques were performed identically on 0.5 mM ethynylferrocene (50 mM NaCl), 0.5 mM 13 (50 mM NaCl) or 0.5 mM 14 (50 mM NaCl). Approximately 4 mL of solution was transferred to an electrochemical cell and subjected to cyclic voltammetry (CV) experiments. Cyclic voltammetry was conducted using a CH Instruments 600A Electrochemical Analyzer and CV curves were generated using software developed by CH Instruments. Current (μA) versus Potential (V) was measured across a freshly polished CHI104 3 mm diameter glassy carbon disk working electrode (CH Instruments) with a Ag/AgCl (3 M KCl) reference electrode (CH Instruments) and a Pt wire […] (scan rate=9.0 mV s^−1).
To test the effect of triazole conjugation on ferrocene redox properties, compound 13 was purified to >96% as determined by RP-HPLC and the electrochemical behavior of ethynylferrocene and 13 were compared using cyclic voltammetry (CV). Additionally, the influence of the estradiol group on the redox potential of the neighboring ferrocene moiety was evaluated by comparing the electrochemical characteristics of 13 with its azido-functionalized precursor 14. CV experiments were carried out at room temperature using previously described methods (Casas-Solvas et al., Org. Lett. 2004, 6, 3687). CV was performed on solutions of ethynylferrocene (0.5 mM), 13 (0.5 mM) or 14 (0.5 mM) prepared in water with NaCl (50 mM) as a supporting electrolyte, using a Ag/AgCl (KCl 3 M) reference electrode, a freshly polished glassy carbon working electrode, and a Pt wire counter electrode with a scan rate of 9.0 mV s^−1. The values of the formal redox potential)(E^o) and the half-peak potential (Ep/2) of ethynylferrocene, 13 and 14 are shown in Table 1. […]

[1] = glassy carbon working electrode, Ag/AgCl reference, scan rate 9.0 mV s^-1

With Ethynylferrocene the “Redox behaviour in cyclic voltammograms (ferrocene/ferrocenium)” value (FIG. 5) was “reversible redox couples”, the “Ep/2 (half-peak potential)” value [1] was 0.525 V and the “E° (formal redox potential)” value [1] was 0.512 V.
